The text below walks through data of ChEMBL document CHEMBL1201862, “PubChem BioAssay data set” (2004).

The source made the active and inactive calls.

A short description of assay [1]: HEK293 cell viability, dose response, counter-screen for EBV LMP1 inhibitor project, dry powder, set 2 (AID 624374). In kind it is functional.
Assay [2] is described as follows: LMP1-driven NF-kB reporter inhibition, dose response, cell-based, luciferase reporter, luminescence, dry powder, set 2 (AID 624376). The assay is classed as functional.
The target in assay [3] is Beta-lactamase (Salmonella choleraesuis (strain SC-B67), UniProt Q5J463). Briefly: Epi-absorbance-based counterscreen for selective VIM-2 inhibitors: dose response biochemical high throughput screening assay to identify inhibitors of TEM-1 serine-beta-lactamase. (The purpose of a counterscreen is to sort out artefacts and off-target activity.)
Chain of Beta-lactamase (Salmonella choleraesuis (strain SC-B67), UniProt Q5J463) (Q5J463 whole entry): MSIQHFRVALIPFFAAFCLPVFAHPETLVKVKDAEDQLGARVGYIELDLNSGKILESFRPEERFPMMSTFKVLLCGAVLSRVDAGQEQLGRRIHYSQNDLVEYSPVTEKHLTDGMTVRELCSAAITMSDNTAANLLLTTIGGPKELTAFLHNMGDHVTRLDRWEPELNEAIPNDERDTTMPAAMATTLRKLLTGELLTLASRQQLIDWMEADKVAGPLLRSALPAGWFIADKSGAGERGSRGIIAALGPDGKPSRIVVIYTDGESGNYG
Assay [4] addresses T1, Beta-lactamase (Pseudomonas aeruginosa, UniProt Q79MP6). Briefly: […] counterscreen for selective VIM-2 inhibitors: dose response biochemical high throughput screening assay to identify inhibitors of IMP-1 metallo-beta-lactamase.
In assay [5] the target is T1, Beta-lactamase. The assay can be described thus: IMP-1 metallo-beta-lactamase inhibitors, dose response, selectivity assay for VIM-2 inhibitor project, biochemical, epi-absorbance (AID 1920).
Assay [6] relates to Vero. The assay can be described thus: Vero cell toxicity, dose response, cytotoxicity control, plate reader, cherry-pick samples (AID 687020). In kind it is functional, cell-based. Particulars: Chlorocebus sabaeus.
The subject of assay [7] is A549. The assay can be described thus: A549 cell toxicity, dose response, cytotoxicity control, plate reader, cherry-pick samples (AID 687028). In kind it is functional, cell-based. To be noted: Homo sapiens.
In assay [8] the target is Albumin (Bos taurus, UniProt P02769). Briefly: Counterscreen for inhibitors of T-cell receptor (TCR)-CD3 interaction: Fluorescence-based biochemical high throughput dose response assay to identify inhibitors of T-cell receptor (TCR)-CD3 interaction using a TAMRA-labeled BSA probe. The assay is classed as functional.
Chain of Albumin (P02769 whole entry): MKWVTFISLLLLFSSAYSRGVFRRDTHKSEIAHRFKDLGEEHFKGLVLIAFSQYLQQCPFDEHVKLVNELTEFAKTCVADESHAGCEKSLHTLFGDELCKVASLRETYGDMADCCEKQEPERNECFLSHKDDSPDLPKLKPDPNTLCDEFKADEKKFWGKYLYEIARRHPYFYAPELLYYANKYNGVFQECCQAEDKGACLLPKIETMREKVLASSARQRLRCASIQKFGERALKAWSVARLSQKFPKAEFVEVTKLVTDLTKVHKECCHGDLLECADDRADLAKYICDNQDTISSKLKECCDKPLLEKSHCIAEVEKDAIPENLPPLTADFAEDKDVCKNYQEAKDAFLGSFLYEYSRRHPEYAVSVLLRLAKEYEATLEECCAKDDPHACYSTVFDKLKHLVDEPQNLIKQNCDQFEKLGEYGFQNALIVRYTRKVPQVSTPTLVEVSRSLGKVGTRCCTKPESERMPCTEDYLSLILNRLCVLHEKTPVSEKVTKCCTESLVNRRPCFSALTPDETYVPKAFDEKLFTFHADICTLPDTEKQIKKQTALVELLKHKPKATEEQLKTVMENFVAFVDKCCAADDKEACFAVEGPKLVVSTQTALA
Assay [9] in a line: Luminescence Cell-Based Dose Retest to Confirm Inhibitors of Cancer Stem Cells. [Related pubchem assays (depositor defined):AID2717, AID2721]. In kind it is functional. To be noted: Homo sapiens.
For assay [10], the target named is Beta-galactosidase (Escherichia coli, UniProt Q8VNN2). Briefly: Dose response counterscreen for EBI2 assay utilizing the enzyme, b-galactosidase. The assay is classed as functional.
In assay [11] the target is SWI/SNF-related matrix-associated actin-dependent regulator of chromatin subfamily A member 2 (Homo sapiens, UniProt P51531). The assay can be described thus: Luminescence-based cell-based high throughput dose response assay to identify activators of the function of SWI/SNF related, matrix associated, actin dependent regulator of chromatin, subfamily a, member 2 (SMARCA2, BRM). The assay is classed as functional.

The target in assay [12] is T2, Methionyl-tRNA synthetase, putative (Trypanosoma brucei brucei, UniProt Q38C91).
T2 sequence (Q38C91 whole entry): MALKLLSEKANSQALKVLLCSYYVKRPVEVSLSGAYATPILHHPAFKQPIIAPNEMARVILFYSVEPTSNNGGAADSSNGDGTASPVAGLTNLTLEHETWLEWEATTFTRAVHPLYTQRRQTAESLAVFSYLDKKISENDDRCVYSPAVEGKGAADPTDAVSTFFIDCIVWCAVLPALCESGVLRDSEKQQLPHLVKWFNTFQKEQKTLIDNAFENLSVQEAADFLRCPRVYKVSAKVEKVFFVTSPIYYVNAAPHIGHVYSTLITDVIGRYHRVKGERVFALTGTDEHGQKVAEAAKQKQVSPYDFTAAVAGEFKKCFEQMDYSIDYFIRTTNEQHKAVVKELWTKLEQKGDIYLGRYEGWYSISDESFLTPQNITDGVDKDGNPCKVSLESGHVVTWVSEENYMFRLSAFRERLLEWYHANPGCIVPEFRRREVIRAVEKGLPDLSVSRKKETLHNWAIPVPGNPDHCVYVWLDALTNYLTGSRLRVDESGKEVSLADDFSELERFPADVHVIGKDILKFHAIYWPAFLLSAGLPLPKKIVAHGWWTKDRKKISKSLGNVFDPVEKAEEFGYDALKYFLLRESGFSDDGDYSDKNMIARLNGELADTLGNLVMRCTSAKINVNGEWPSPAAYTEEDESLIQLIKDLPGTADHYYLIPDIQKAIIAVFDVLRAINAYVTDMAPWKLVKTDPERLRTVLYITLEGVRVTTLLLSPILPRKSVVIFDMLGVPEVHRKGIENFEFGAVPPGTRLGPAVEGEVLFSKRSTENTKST
In kind it is functional, Trypanosoma brucei brucei strain 927/4 GUTat10.1.

The target in assay [13] is T2, Methionyl-tRNA synthetase, putative. The assay is classed as functional, Trypanosoma brucei brucei strain 927/4 GUTat10.1. The source holds these as a separate data set.
Assay [14] is described as follows: Counterscreen for inhibitors of Trypanosoma brucei methionyl tRNA synthetase (MetRS): Luminescence-based cell-based high throughput dose response assay to identify compounds that are cytotoxic to Jurkat human T lymphocyte cells. The assay is classed as functional.
Assay [15] can be described thus: Counterscreen for activators of the function of SWI/SNF related, matrix associated, actin dependent regulator of chromatin, subfamily a, member 2 (SMARCA2, BRM): Luminescence-based cell-based high throughput dose response assay to identify non-selective compounds using the VP16 reporter assay. The assay is classed as functional.
For assay [16], the target named is Photoreceptor-specific nuclear receptor (Homo sapiens, UniProt Q9Y5X4). In kind it is functional, cell-based.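 Further: CHO-S cells with Gal4-NCOR and VP16-NR2E3 two-hybrid luciferase reporter.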
Chain of Photoreceptor-specific nuclear receptor (Q9Y5X4 whole entry, the tested form may be a part): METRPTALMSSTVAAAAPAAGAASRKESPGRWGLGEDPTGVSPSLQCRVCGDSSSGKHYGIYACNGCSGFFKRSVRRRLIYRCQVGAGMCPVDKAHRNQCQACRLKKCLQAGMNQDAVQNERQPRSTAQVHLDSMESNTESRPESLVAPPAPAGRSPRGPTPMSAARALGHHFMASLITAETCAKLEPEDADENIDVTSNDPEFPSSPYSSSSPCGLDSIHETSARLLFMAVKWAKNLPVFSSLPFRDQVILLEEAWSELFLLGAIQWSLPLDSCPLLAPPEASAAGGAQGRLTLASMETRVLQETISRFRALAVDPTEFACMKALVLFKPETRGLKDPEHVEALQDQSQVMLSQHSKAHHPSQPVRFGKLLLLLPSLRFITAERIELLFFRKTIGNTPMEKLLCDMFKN
The target in assay [17] is Fructose-bisphosphate aldolase (Mycobacterium tuberculosis, UniProt P9WQA3). The assay can be described thus: Fluorescence-based biochemical high throughput dose response assay for inhibitors of the fructose-bisphosphate aldolase (FBA) of M. tuberculosis. The assay is classed as functional.
Chain of Fructose-bisphosphate aldolase (P9WQA3 whole entry): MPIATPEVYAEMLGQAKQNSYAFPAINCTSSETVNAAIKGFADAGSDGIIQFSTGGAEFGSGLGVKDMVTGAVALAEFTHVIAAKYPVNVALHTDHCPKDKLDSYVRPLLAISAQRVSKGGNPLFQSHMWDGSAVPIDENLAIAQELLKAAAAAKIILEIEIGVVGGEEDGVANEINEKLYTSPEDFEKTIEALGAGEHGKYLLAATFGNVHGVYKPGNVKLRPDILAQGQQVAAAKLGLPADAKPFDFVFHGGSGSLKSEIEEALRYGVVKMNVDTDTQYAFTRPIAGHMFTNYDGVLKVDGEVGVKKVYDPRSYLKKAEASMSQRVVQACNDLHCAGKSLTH
A short description of assay [18]: human group III sPLA2 inhibitors, dose response, biochemical, QFRET, IC50 (AID 743457).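 Further: green fluorescence rise as the enzyme cleaves BODIPY PC-A2 in liposomes; potency for inhibition of the enzyme.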
Assay [19] deals with Cytochrome P450 2C9 (Homo sapiens, UniProt P11712).
Chain of Cytochrome P450 2C9 (P11712 whole entry): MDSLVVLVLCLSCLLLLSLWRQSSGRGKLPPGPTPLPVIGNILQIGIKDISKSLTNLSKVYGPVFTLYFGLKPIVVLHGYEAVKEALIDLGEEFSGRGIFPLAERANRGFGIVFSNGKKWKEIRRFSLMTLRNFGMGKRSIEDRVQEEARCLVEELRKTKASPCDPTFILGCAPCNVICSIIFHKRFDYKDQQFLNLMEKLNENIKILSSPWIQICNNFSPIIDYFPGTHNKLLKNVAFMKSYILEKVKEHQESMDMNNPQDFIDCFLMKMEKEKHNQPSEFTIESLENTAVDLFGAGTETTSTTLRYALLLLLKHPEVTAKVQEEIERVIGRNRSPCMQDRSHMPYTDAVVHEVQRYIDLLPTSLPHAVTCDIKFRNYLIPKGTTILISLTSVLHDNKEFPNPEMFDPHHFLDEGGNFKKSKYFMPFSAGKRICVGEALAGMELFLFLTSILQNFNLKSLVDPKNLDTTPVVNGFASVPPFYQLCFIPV
In assay [20] the target is Cytochrome P450 3A4 (Homo sapiens, UniProt P08684).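 Further: CYP3A4 tested as one member of a cytochrome P450 panel screen.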
Assay [21] concerns the target Cytochrome P450 2D6 (Homo sapiens, UniProt P10635).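 Further: CYP2D6 member of a cytochrome P450 panel assay.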
Assay [22] concerns the target DNA dC->dU-editing enzyme APOBEC-3G (Homo sapiens, UniProt Q9HC16). The assay is classed as functional.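 Further: Dose-response counterscreen measuring inhibition of APOBEC3G DNA deaminase activity, run while confirming APOBEC3A inhibitors.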
In assay [23] the target is Histone-lysine N-methyltransferase NSD2 (Homo sapiens, UniProt O96028). In kind it is biochemical.
Chain of Histone-lysine N-methyltransferase NSD2 (O96028 whole entry): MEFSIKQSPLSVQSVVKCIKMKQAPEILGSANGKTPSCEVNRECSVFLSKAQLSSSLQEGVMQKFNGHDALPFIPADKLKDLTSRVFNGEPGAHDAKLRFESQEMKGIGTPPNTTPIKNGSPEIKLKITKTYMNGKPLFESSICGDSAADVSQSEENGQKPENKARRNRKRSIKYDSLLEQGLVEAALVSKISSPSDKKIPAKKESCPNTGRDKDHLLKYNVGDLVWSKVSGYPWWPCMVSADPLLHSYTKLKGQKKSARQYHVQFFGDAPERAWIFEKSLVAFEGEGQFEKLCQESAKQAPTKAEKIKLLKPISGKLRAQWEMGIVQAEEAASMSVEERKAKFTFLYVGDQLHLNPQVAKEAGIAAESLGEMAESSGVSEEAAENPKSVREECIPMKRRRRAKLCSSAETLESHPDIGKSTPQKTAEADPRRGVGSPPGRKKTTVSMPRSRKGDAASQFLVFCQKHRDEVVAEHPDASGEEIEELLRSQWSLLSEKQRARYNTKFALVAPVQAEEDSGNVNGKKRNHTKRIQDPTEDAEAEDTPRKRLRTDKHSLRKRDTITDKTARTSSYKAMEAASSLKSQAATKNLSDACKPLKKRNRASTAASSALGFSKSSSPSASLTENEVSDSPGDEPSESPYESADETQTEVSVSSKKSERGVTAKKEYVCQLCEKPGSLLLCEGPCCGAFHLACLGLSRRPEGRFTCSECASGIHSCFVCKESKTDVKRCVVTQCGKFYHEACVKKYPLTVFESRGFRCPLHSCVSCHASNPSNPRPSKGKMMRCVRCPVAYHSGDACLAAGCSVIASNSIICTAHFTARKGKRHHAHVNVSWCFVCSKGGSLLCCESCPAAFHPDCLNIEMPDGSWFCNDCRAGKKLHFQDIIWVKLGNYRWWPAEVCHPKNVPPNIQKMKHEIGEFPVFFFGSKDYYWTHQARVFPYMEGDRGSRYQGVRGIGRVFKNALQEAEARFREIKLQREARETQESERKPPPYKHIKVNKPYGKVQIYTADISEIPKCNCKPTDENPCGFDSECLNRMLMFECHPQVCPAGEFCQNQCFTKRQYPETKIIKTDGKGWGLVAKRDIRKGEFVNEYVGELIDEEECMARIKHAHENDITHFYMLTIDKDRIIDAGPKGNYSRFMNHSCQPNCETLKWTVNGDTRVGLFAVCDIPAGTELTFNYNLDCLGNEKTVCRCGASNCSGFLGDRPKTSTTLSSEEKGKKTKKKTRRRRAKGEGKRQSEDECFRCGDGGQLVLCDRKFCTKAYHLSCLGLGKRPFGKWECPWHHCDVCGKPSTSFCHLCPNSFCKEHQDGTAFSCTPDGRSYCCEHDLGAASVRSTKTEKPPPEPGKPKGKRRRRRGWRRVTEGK
Assay [24] addresses DNA dC->dU-editing enzyme APOBEC-3A (Homo sapiens, UniProt P31941). The assay can be described thus: Dose Response confirmation of small molecule APOBEC3A DNA Deaminase Inhibitors via a fluorescence-based single-stranded DNA deaminase assay. [Related pubchem assays (depositor defined):AID493011, AID493024]. The assay is classed as functional.
Assay [25] has as its target Matrix metalloproteinase-14 (Homo sapiens, UniProt P50281). The assay can be described thus: Dose Response confirmation of uHTS hits for a small molecule inhibitors of MT1-MMP activation in a fluorescence assay set 1. The assay is classed as functional.
In assay [26] the test system is Vero. Briefly: cells. The assay is classed as functional. Particulars: Chlorocebus sabaeus.
Assay [27] can be described thus: growth suppression of beta-catenin-knockout colon cells, dose response, cell-based, HCT116, human colon tumor (AID 1045).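 Further: HCT116 colon tumor cells with beta catenin knocked out; cells exposed to compound for 60 hours.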 In kind it is functional.
A short description of assay [28]: cytotoxicity in HMLE control line with eGFP shRNA, dose response, counter-screen for HMLE_sh_ECad selective toxicity project, cell-based, HMLE_sh_eGFP, luminescence (AID 463074).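 Further: HMLE human mammary epithelial cells expressing control shRNA against eGFP.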 The assay is classed as functional, Homo sapiens.
A short description of assay [29]: growth suppression of PTEN-null colon cells, dose response, cell-based, HCT116 PTEN knockout (AID 1047).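 Further: HCT116 colon tumor cells with PTEN knocked out; cells exposed to compound for 60 hours before readout; potency for loss of cell viability measured by luminescence.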 In kind it is functional.
Assay [30] can be described thus: Late stage assay provider results from the probe development effort to identify inhibitors of the Plasmodium falciparum M17 Leucine Aminopeptidase (M17LAP): radiolabel-based cell-based dose response assay to identify compounds that inhibit P. falciparum growth in RBCs Set 2. In kind it is functional.

T1 sequence (Q79MP6 whole entry): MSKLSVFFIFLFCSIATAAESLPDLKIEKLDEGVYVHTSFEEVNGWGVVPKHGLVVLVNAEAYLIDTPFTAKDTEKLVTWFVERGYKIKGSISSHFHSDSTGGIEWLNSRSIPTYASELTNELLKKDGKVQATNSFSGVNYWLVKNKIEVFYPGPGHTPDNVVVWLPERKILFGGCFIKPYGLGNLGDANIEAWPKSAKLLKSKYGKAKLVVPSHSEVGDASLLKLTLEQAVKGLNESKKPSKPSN
Chain of DNA dC->dU-editing enzyme APOBEC-3G (Q9HC16 whole entry): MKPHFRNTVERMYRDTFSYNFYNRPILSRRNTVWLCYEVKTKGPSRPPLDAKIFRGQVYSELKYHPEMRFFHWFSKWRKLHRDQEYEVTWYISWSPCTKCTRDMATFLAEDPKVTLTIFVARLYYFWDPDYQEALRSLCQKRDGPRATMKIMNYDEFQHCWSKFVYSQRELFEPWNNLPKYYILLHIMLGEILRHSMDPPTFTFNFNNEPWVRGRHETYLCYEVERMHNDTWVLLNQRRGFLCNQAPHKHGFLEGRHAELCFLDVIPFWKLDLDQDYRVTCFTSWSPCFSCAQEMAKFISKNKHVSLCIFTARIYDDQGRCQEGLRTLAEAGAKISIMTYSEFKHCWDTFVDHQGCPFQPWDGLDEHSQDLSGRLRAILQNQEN
Chain of Cytochrome P450 2D6 (P10635 whole entry): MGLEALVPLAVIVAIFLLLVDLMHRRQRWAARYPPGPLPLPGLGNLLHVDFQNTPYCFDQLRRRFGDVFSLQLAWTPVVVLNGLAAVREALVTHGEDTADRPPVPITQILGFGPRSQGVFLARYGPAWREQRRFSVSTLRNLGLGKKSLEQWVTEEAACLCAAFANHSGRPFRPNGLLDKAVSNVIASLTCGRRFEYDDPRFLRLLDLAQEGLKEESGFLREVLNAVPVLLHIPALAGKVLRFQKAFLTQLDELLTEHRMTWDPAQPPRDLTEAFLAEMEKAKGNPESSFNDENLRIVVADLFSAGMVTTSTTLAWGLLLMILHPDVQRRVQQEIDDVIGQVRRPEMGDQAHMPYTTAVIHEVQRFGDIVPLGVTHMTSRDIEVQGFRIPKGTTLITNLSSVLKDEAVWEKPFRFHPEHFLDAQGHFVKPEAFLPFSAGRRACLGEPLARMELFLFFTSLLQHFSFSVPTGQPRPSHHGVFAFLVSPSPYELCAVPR
Chain of DNA dC->dU-editing enzyme APOBEC-3A (P31941 whole entry): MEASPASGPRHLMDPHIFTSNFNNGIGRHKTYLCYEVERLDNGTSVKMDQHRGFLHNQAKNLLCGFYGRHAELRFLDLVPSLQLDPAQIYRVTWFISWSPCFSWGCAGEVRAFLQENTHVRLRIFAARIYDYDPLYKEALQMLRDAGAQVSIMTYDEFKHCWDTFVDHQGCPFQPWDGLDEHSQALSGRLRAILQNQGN

Take `O=C(Cc1ccccn1)NCC[C@@H]1CC[C@H](NC(=O)Nc2ccc(Cl)cc2)[C@@H](CO)O1`: the AbsAC35 in assay [1] turned out to be 102.52 µM; in assay [2] it was 74.18 µM.

A word on the IC50: it is the point on the concentration scale where inhibition reaches its midpoint. `CCN(CC)C(=O)CSc1nc2ccc(NC(=O)CSc3nccn3C)cc2s1`: the IC50 in assay [3], in [4] and in [5] was > 59.6 µM (inactive) throughout.

Broadly, the AC50 is the concentration at which the activity in the assay is half-maximal. For the compound `O=C(NNC(=O)c1ccccc1O)c1ccccc1O`, the AC50 in [6] is 1.05 µM (active); in assay [7], 2.46 µM (active). In assay [8], the IC50 is > 93.9 µM (inactive).

For `COC(=O)c1cc(=O)n(Cc2ccc(F)cc2)/c(=N/c2ccccc2)s1`, the AC50 in [9] was 4.82 µM (active). Moreover, the IC50 in assay [10] is > 80 µM (inactive).

What is called EC50 is the midpoint of the concentration-response curve. As for `Cc1cccc(OCCCC(=O)Nc2nc3ccccc3[nH]2)c1`, the EC50 in assay [11] and in assay [15] was > 91.1 µM (inactive) throughout. The IC50 in [12] is 39.5 µM (inactive); in assay [13], 4.34 µM (active); in [14], 29.6 µM (inactive); in assay [16] it was 2.88 µM (active).

As for `COC1=Nc2ccccc2N2CCN=C12`, in [17], the IC50 was 2.07 µM (active).

With `S=C(Nc1ccccc1)Nc1nccs1`, the IC50 in assay [18] is > 122 µM (inactive). Moreover, the AC50 in assay [19] is 20 µM (inconclusive); in assay [20], 15.8 µM (inconclusive); in assay [21], 31.6 µM (inconclusive).

Take `Cc1cc(/C=C2\C(=O)NC(=O)N(c3cccc(F)c3)C2=O)c(C)n1-c1cc(C(=O)O)cc(C(=O)O)c1`: the IC50 in assay [22] is 27.4 µM (active); in assay [24], 16.8 µM (active). For the same compound, the AC50 in assay [23] was > 20 µM (inactive).

By CC50 is commonly meant the concentration giving 50% cytotoxicity. As to `O=C(NNc1c2ccccc2nc2ccccc12)c1cc2ccccc2cc1O`, the IC50 in [25] was 24.4 µM (inactive). Further, the half-maximal activity concentration (AC50) was 27 µM (active) in assay [9] and 28.2 µM (active) in assay [28]. For the same compound, the CC50 in [26] was 2.61 µM (active). Moreover, the EC50 in [27] is 7.12 µM (active); in [29], 6.4 µM (active).

Regarding `CCCCc1ccc(CC(=O)NO)cc1`, in [30], the IC50 is 4.3 µM (active).
